Source: US20060115815A1 (priority 2002, published 2006)
Like-named read-outs stand apart in the source and are kept apart here.

How the values were obtained:
[1] = tested on: recombinant HIV-1 strains with resistance mutations in the protease gene; experiment: Cross-resistance profile assay, whole panel of mutant viruses; type: cell-based; conditions: of 11 mutant viruses; resistance = 5-fold and higher change in EC50 relative to wild-type
MT-2 cells [2] = tested on: MT-2 cells
[3] = tested on: PBMC in intact human whole blood
[4] = tested on: mutant HIV-1 with I84V/L90M mutations in the protease gene; type: cell-based; conditions: MT-4, 84V90M; read-out: Cell-based assay (MT-4) EC50/nM 84V90M
30N82I88D [5] = tested on: 30N82I88D; set-up: species or system HIV-1; conditions: MT-4, 30N82I88D; read-out: Cell-based assay (MT-4) EC50/nM 30N82I88D
48V54V82A [6] = tested on: 48V54V82A; set-up: species or system HIV-1; conditions: MT-4, 48V54V82A; read-out: Cell-based assay (MT-4) EC50/nM 48V54V82A
48V54V82S [7] = tested on: 48V54V82S; set-up: species or system HIV-1; conditions: MT-4, 48V54V82S; read-out: Cell-based assay (MT-4) EC50/nM 48V54V82S
48V82A90M [8] = tested on: 48V82A90M; set-up: species or system HIV-1; conditions: MT-4, 48V82A90M; read-out: Cell-based assay (MT-4) EC50/nM 48V82A90M
46I50V [9] = tested on: 46I50V; set-up: species or system HIV-1; conditions: MT-4, 46I50V; read-out: Cell-based assay (MT-4) EC50/nM 46I50V
[10] = target: recombinant HIV-1 protease (Human immunodeficiency virus type 1 group M subtype B, UniProt P04585); experiment: biochemical; type: biochemical; conditions: for Ki: read-out: Enzymatic assay Ki; for IC50: read-out: Enzymatic assay WT IC50/nM
84V90M [11] = target: T1, 84V90M (Human immunodeficiency virus type 1 group M subtype B, UniProt P04585, I572V/L578M); experiment: Enzymatic assay, IC50 against 84V90M mutant protease; type: biochemical, HIV-1
[12] = tested on: wild-type HIV-1 strain IIIB; experiment: microbe, parasite or virus in culture; type: cell-based; conditions: read-out: EC50
MT-2 cells [13] = tested on: MT-2 cells; remark: listed apart in the source
WT HIV-1 = experiment: microbe, parasite or virus in culture; type: cell-based; conditions: MT-4, WT; read-out: Cell-based assay (MT-4) EC50/nM WT
84V90M [14] = target: T1, 84V90M; experiment: biochemical; set-up: species or system HIV-1
WT = experiment: microbe, parasite or virus in culture; type: cell-based, HIV-1; conditions: Human immunodeficiency virus 1, read-out: Cell-based assay (MT-4) EC50 WT
84V90M [15] = target: T1, 84V90M; experiment: cell-based; set-up: species or system HIV-1
30N82I88D [16] = experiment: microbe, parasite or virus in culture; type: cell-based, HIV-1; conditions: Human immunodeficiency virus 1, read-out: Cell-based assay (MT-4) EC50 30N82I88D
48V54V82A [17] = experiment: microbe, parasite or virus in culture; type: cell-based, HIV-1; conditions: Human immunodeficiency virus 1, read-out: Cell-based assay (MT-4) EC50 48V54V82A
48V54V82S [18] = experiment: microbe, parasite or virus in culture; set-up: species or system HIV-1; conditions: Human immunodeficiency virus 1, read-out: Cell-based assay (MT-4) EC50 48V54V82S
48V82A90M [19] = experiment: microbe, parasite or virus in culture; set-up: species or system HIV-1; conditions: Human immunodeficiency virus 1, read-out: Cell-based assay (MT-4) EC50 48V82A90M
46I50V [20] = experiment: microbe, parasite or virus in culture; type: cell-based, HIV-1; conditions: Human immunodeficiency virus 1, read-out: Cell-based assay (MT-4) EC50 46I50V
GS-7340 Ester Hydrolase = target: T2, GS-7340 Ester Hydrolase (Homo sapiens, UniProt P10619); experiment: biochemical
T2 construct: from tissue; host or cells: human peripheral blood mononuclear cells (extract and column pools)
T2 sequence (P10619 29-326 limits assumed): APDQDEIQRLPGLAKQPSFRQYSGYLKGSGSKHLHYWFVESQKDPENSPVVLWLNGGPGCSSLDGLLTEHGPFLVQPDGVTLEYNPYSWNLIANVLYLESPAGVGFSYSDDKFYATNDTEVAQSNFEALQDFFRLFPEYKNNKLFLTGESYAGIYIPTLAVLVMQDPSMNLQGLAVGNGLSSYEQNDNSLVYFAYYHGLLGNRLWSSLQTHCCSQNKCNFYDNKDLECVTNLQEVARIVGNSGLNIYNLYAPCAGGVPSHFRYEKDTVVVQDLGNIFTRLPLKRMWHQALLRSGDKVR
T2 sequence (P10619 327-480 limits assumed): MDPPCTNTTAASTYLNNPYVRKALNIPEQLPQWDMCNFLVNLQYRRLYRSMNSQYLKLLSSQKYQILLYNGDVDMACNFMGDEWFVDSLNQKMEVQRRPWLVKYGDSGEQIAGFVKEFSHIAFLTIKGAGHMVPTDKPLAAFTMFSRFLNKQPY

## CCCCOC(=O)C(C)NP(=O)(COc1ccc(CC(NC(=O)OC2COC3OCCC23)C(O)CN(CC(C)C)S(=O)(=O)c2ccc(OC)cc2)cc1)NC(C)C(=O)OCCCC (stereo not shown) [GS-16503]
[1]
  Total No. of Resistant Viruses: 0
MT-2 cells [2]
  Metabolism (conversion to acid metabolites), increase at 1 μM vs. 10 μM: 3 fold
[3]
  Intracellular Acid Metabolite Concentration: 279 ± 47 µM
  Intracellular Prodrug Concentration: 61 ± 40 µM
  Intracellular Prodrug and Metabolites Concentration, uM: Acid Metabolite: 279 ± 47 µM
  Intracellular Prodrug and Metabolites Concentration: Prodrug: 61 ± 40 µM
  Intracellular Prodrug and Metabolites Concentration: Total: 340 ± 35 µM
Quiescent PBMC
  Cell-Associated PI, pmol/mln cells: Prodrug: 0 pmol/mln cells

## CCOP(=O)(CCNC(=O)Oc1ccc(C[C@@H]2[C@H](O)[C@@H](O)[C@@H](Cc3ccc(OC)cc3)N(Cc3cccc(N)c3)C(=O)N2Cc2cccc(N)c2)cc1)OCC [R=OCH3, R1=Ph-mNH2, R2=OCONH(CH2)2PO3Et2]
[4]
  EC50: 2260 nM
30N82I88D [5]
  EC50: 77 nM
48V54V82A [6]
  EC50: 262 nM
48V54V82S [7]
  EC50: 214 nM
48V82A90M [8]
  EC50: 215 nM
46I50V [9]
  EC50: 184 nM

## N#Cc1cc(CN2C(=O)N(Cc3cccc(OCc4ccccc4)c3)[C@H](Cc3ccccc3)[C@H](O)[C@@H](O)[C@H]2Cc2ccccc2)ccc1F
[10]
  Ki: 1.43 nM
  IC50: 302 nM
[4]
  EC50: > 600 nM
84V90M [11]
  IC50: 114 nM

## CCOP(=O)(COc1ccc(CC(NC(=O)OC2COC3OCCC23)C(O)CN(CC(C)C)S(=O)(=O)c2ccc(OC)cc2)cc1)OCC (stereo not shown) [drawing 651 R1=OEt R2=OEt]
[12]
  EC50: < 50 nM
MT-2 cells [13]
  CC50: 5000 to 50000 nM

## CCOC(=O)C(CC)OP(=O)(CCNCc1ccc(C[C@H](NC(=O)O[C@H]2CO[C@H]3OCC[C@H]32)[C@H](O)CN(CC(C)C)S(=O)(=O)c2ccc(OC)cc2)cc1)Oc1ccccc1 (stereo partly shown) [drawing 662 R1=Ph R2=Hba-Et]
[12]
  EC50: 50 to 500 nM
MT-2 cells [13]
  CC50: 5000 to 50000 nM

## CCOC(=O)C(C)OP(=O)(CCNCc1ccc(C[C@H](NC(=O)O[C@H]2CO[C@H]3OCC[C@H]32)[C@H](O)CN(CC(C)C)S(=O)(=O)c2ccc(OC)cc2)cc1)Oc1ccccc1 (stereo partly shown) [drawing 662 R1=Ph R2=Lac-Et]
[12]
  EC50: 50 to 500 nM
MT-2 cells [13]
  CC50: > 50000 nM

## CCOC(=O)C(C)OP(=O)(COc1ccc(C[C@H](NC(=O)O[C@H]2CO[C@H]3OCC[C@H]32)[C@H](O)CN(CC(C)C)S(=O)(=O)c2ccc(OC)cc2)cc1)Oc1ccccc1 (stereo partly shown) [GS-17394]
MT-2 cells [2]
  Metabolism (conversion to acid metabolites), increase at 1 μM vs. 10 μM: independent
[3]
  Intracellular Acid Metabolite Concentration: 629 ± 303 µM
  Intracellular Prodrug Concentration: 69 ± 85 µM
  Intracellular Prodrug and Metabolites Concentration, uM: Acid Metabolite: 629 ± 303 µM
  Intracellular Prodrug and Metabolites Concentration: Prodrug: 69 ± 85 µM
  Intracellular Prodrug and Metabolites Concentration: Total: 698 ± 301 µM
Quiescent PBMC
  Cell-Associated PI, pmol/mln cells: Prodrug: 0 pmol/mln cells

## O=C1N(Cc2ccccc2)[C@H](Cc2ccccc2)[C@H](O)[C@@H](O)[C@@H](Cc2ccccc2)N1Cc1ccc2[nH]nc(O)c2c1
[10]
  Ki: 0.42 nM
  IC50: 6.6 nM
[4]
  EC50: > 600 nM
WT HIV-1
  EC50: 1230 nM
84V90M [11]
  IC50: 85 nM
30N82I88D [5]
  EC50: 869 nM
48V54V82A [6]
  EC50: 774 nM
46I50V [9]
  EC50: 937 nM

## CCOP(=O)(CNC(=O)Oc1ccc(C[C@@H]2[C@H](O)[C@@H](O)[C@@H](Cc3ccc(OC)cc3)N(Cc3cccc(N)c3)C(=O)N2Cc2cccc(N)c2)cc1)OCC [R=OCH3, R1=Ph-mNH2, R2=OCONH(CH2)PO3Et2]
[10]
  IC50: 9.9 nM
[4]
  EC50: 2150 nM
WT HIV-1
  EC50: 58 nM
84V90M [11]
  IC50: 85 nM
30N82I88D [5]
  EC50: 68 nM
48V54V82A [6]
  EC50: 223 nM
48V54V82S [7]
  EC50: 203 nM
48V82A90M [8]
  EC50: 185 nM
46I50V [9]
  EC50: 104 nM

## CCCCN1C(=O)N(Cc2ccc3[nH]nc(N)c3c2)C(Cc2ccccc2)C(O)C(O)C1Cc1ccccc1 (stereo not shown) [CH3 (DMP-851)]
84V90M [14]
  IC50: 9.4 nM
WT
  EC50: 54 nM
84V90M [15]
  EC50: 918 nM
30N82I88D [16]
  EC50: 69 nM
48V54V82A [17]
  EC50: 33 nM
48V54V82S [18]
  EC50: 30 nM
48V82A90M [19]
  EC50: 22 nM
46I50V [20]
  EC50: 17 nM

## CCOP(=O)(COc1ccc(C[C@@H]2[C@H](O)[C@@H](O)[C@@H](Cc3ccccc3)N(Cc3cccc(N)c3)C(=O)N2Cc2cccc(N)c2)cc1)OCC [R=H, R1=Ph-mNH2, R2=OCh2PO3Et2]
[4]
  EC50: 328 nM
WT HIV-1
  EC50: 65 nM
30N82I88D [5]
  EC50: 16 nM
48V54V82A [6]
  EC50: 168 nM
48V54V82S [7]
  EC50: 146 nM
46I50V [9]
  EC50: 46 nM

## CCOP(=O)(COc1ccc(CC2C(O)C(O)C(Cc3ccc(OC)cc3)N(Cc3ccc(O)cc3)C(=O)N2Cc2ccc(O)cc2)cc1)OCC (stereo not shown) [OCH3, Ph-pOH, OCH2PO3Et2]
30N82I88D [16]
  EC50: 23 nM
48V54V82S [18]
  EC50: 106 nM
48V82A90M [19]
  EC50: 48 nM

## CCOC(=O)C(C)NP(=O)(COc1ccc(C[C@@H]2[C@H](O)[C@@H](O)[C@@H](Cc3ccccc3)N(Cc3ccccc3)C(=O)N2Cc2ccccc2)cc1)Oc1ccccc1 (stereo partly shown) [R=H, R1=Ph, R2=Mono-Ala-Et]
[10]
  IC50: 5 nM
[4]
  EC50: 2940 nM
WT HIV-1
  EC50: 310 nM
84V90M [11]
  IC50: 50 nM
30N82I88D [5]
  EC50: 238 nM
48V54V82A [6]
  EC50: 2850 nM
48V54V82S [7]
  EC50: 1950 nM
48V82A90M [8]
  EC50: 2450 nM
46I50V [9]
  EC50: 1250 nM

## CCOP(=O)(COc1ccc(CC2C(O)C(O)C(Cc3ccc(OC)cc3)N(Cc3cccnc3)C(=O)N2Cc2cccnc2)cc1)OCC (stereo not shown) [OCH3, m-pyridine, OCH2PO3Et2]
84V90M [15]
  EC50: 765 nM
30N82I88D [16]
  EC50: 106 nM
48V54V82A [17]
  EC50: 1020 nM
48V54V82S [18]
  EC50: 970 nM
48V82A90M [19]
  EC50: 480 nM
46I50V [20]
  EC50: 352 nM

## COc1ccc(CN2C(=O)N(Cc3ccc(O)cc3)[C@H](Cc3ccccc3)[C@H](O)[C@@H](O)[C@H]2Cc2ccccc2)cc1C#N
[10]
  Ki: > 5 nM
  IC50: 130 nM
[4]
  EC50: 3120 nM
WT HIV-1
  EC50: 2010 nM
84V90M [11]
  IC50: 348 nM

## CCOP(=O)(CCNC(=O)Oc1ccc(C[C@@H]2[C@H](O)[C@@H](O)[C@@H](Cc3ccc(OC)cc3)N(Cc3ccc(O)cc3)C(=O)N2Cc2ccc(O)cc2)cc1)OCC [R=OCH3, R1=Ph-pOH, R2=OCONH(CH2)2PO3Et2]
[4]
  EC50: 495 nM
WT HIV-1
  EC50: 33 nM
30N82I88D [5]
  EC50: 31 nM
48V54V82S [7]
  EC50: 51 nM
48V82A90M [8]
  EC50: 55 nM
46I50V [9]
  EC50: 223 nM

## O=c1oc(Cl)c(Cl)c2ccccc12 [3,4-DCI, 3,4 dichloroisocoumarin, reference compound]
GS-7340 Ester Hydrolase
  IC50: 4000 nM

## CCOP(=O)(COc1ccc(C[C@H](NC(=O)O[C@H]2CO[C@H]3OCC[C@H]32)[C@H](O)CN(CC(C)C)S(=O)(=O)c2ccc(OC)cc2)cc1)OCC [Compound 13]
MT-2 cells [13]
  CC50: 50000 nM

## CCOC(=O)C(C)OP(=O)(COc1ccc(C[C@@H]2[C@H](O)[C@@H](O)[C@@H](Cc3ccccc3)N(Cc3ccccc3)C(=O)N2Cc2ccccc2)cc1)Oc1ccccc1 (stereo partly shown) [R=H, R1=Ph, R2=Mono-lac-Et]
[10]
  Ki: 0.12 nM
  IC50: 6.6 nM
[4]
  EC50: > 6000 nM
WT HIV-1
  EC50: 1730 nM
84V90M [11]
  IC50: 56 nM
30N82I88D [5]
  EC50: 2790 nM
48V54V82A [6]
  EC50: > 6000 nM
